Assays:
[1] = molecular target: T1, SMARCA2-HiBiT HeLa cells (protein which is expressed from the SMARCA2 gene) (Homo sapiens, UniProt P51531); assay: SMARCA2 degradation assay (HiBiT-fusion HeLa cell line, 24 h, luminescence); format: cell-based
T1 construct: protein which is expressed from the SMARCA2 and SMARCA4 genes; host or cells: HeLa (SMARCA2-HiBiT engineered line)
In short: (§1)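 HiBiT-fusion HeLa lines, 8,000 cells/well, overnight attachment; cpd 10-pt series (typically 10 μM–300 pM), 24 h, 37° C. Lysis with LgBiT + HiBiT substrate, 10 min shaking at RT, luminescence read. DC50 from dose-response fit; % degradation also scored at 1 μM.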

[2] = molecular target: T2, SMARCA4-HiBiT HeLa cells (protein which is expressed from the SMARCA4 gene) (Homo sapiens, UniProt P51532); assay: SMARCA4 degradation assay (HiBiT-fusion HeLa cell line, 24 h, luminescence); format: cell-based
T2 construct: protein which is expressed from the SMARCA2 and SMARCA4 genes; host or cells: HeLa (SMARCA4-HiBiT engineered line)
In short: as §1

T1 sequence (P51531 whole entry, the tested form may be a part): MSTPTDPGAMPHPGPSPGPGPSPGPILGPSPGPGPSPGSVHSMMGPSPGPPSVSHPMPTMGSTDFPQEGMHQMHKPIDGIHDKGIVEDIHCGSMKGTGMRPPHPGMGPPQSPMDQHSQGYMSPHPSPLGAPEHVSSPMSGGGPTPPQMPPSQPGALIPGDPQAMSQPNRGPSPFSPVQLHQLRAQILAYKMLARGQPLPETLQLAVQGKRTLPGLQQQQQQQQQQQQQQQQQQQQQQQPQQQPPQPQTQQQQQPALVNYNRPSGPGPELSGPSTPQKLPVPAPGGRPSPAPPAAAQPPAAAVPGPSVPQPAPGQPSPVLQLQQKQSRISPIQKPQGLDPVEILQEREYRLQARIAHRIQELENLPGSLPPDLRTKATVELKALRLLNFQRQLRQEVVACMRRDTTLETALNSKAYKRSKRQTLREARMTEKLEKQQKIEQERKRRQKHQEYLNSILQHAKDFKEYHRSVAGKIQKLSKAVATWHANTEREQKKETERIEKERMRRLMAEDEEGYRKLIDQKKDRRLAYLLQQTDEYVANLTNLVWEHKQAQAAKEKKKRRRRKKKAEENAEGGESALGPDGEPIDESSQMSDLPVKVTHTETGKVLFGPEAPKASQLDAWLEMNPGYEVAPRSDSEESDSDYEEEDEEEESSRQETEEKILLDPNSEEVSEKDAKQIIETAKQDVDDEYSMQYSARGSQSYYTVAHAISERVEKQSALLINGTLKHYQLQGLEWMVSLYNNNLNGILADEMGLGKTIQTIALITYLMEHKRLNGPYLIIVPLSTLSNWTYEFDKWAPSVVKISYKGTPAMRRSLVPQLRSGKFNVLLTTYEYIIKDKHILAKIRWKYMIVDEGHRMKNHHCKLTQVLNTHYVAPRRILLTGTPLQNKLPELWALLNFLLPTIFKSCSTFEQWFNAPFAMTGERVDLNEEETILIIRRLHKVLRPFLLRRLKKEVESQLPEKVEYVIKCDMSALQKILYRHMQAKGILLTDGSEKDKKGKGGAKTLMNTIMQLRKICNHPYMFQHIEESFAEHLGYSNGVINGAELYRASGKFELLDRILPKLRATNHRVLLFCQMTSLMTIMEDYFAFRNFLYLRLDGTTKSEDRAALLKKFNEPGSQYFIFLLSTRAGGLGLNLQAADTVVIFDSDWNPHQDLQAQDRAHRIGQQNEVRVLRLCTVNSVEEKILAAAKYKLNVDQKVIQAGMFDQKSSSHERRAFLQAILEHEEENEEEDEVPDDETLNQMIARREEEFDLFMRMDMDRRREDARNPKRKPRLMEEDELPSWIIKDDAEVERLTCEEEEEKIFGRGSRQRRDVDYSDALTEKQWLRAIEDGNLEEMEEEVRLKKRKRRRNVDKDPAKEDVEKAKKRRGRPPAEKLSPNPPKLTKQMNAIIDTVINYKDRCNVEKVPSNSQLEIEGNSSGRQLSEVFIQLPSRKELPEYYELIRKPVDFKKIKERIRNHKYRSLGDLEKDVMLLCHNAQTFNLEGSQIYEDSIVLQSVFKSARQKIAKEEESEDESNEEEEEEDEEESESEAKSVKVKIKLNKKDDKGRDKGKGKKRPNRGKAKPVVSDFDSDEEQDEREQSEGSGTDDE
T2 sequence (P51532 whole entry, the tested form may be a part): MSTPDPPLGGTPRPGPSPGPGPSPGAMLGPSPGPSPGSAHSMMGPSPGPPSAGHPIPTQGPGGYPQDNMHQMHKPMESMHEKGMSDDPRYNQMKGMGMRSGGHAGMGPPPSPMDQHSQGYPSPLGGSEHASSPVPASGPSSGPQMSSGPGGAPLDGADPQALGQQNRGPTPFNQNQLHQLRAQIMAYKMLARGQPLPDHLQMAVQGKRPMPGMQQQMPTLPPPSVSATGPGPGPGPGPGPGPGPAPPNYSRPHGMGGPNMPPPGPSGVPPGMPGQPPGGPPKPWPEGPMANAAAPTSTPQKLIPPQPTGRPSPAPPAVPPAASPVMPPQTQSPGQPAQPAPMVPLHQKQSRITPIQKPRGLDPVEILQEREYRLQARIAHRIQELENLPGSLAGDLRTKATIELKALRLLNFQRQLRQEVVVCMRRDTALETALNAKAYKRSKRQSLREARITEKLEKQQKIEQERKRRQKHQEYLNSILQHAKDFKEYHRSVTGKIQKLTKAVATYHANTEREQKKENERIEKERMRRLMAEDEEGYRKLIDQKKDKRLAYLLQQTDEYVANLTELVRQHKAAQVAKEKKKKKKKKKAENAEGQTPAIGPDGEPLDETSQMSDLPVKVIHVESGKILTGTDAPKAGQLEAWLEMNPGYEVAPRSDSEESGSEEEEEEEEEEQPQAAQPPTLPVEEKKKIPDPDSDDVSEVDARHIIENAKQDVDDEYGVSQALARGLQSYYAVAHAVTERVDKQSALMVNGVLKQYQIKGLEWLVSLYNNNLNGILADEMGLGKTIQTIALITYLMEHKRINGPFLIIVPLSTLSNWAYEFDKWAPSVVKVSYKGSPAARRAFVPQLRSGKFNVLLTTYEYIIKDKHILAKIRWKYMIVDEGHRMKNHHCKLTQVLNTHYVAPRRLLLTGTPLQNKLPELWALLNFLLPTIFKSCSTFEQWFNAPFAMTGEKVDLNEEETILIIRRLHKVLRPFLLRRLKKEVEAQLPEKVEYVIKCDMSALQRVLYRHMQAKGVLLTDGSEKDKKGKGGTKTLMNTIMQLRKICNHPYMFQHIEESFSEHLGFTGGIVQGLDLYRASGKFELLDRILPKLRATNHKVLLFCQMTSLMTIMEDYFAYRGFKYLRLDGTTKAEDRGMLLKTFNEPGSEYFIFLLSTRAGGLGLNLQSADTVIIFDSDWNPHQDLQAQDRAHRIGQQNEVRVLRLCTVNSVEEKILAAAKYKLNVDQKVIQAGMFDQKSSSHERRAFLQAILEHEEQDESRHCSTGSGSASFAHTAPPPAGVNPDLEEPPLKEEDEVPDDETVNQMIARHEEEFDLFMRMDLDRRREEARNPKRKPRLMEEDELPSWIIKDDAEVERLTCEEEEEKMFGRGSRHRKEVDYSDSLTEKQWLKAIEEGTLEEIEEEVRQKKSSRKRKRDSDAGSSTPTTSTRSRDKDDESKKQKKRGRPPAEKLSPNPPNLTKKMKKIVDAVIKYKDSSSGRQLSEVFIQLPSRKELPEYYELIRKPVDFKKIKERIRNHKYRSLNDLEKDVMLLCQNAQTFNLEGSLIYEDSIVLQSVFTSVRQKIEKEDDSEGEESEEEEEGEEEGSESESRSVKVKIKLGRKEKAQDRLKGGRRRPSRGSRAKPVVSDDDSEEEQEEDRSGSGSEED

Which DC50 [1] does the source give for `Nc1nnc(-c2ccccc2O)cc1N1CCCN(c2ccnc(C#CCN3CCCC3)n2)CC1` [Compound P-366, 0-[6-amino-5-(4-{2-[3-(1-pyrrolidinyl)-1-propynyl]-4-pyrimidinyl}-1,4-diazepan-1-yl)-3-pyridazinyl]phenol] here?
The DC50 was 50 to 500 nM.

What about the “SMARCA2 % Degradation @ 1 μM” value ([1]; @ 1 μM) of the same molecule?
The value was “+++ (+++=>70%)”.

And the DC50 [2]?
Its DC50 is 50 to 500 nM.

And the inhibition at 1 µM [2]?
The inhibition at 1 µM was > 70%.

`Nc1nnc(-c2ccccc2O)cc1N1CCN(c2ccnc(C#CCNC(=O)c3nc4ccccc4s3)n2)CC1` [Compound P-118, N-(3-(4-(4-(3-amino-6-(2-hydroxyphenyl)pyridazin-4-yl)piperazin-1-yl)pyrimidin-2-yl)prop-2-yn-1-yl)benzo[d]thiazole-2-carboxamide] was tested. Which DC50 [1] did it give?
Its DC50 is 50 to 500 nM.

What about the “SMARCA2 % Degradation @ 1 μM” value ([1]; @ 1 μM) of the same molecule?
The value was “++ (++=30-70%)”.

What about the DC50 [2] of the same molecule?
The DC50 was 50 to 500 nM.

What about the inhibition at 1 µM [2] of the same molecule?
Its inhibition at 1 µM is 30 to 70%.

With `Cc1nn2ccn(CC#Cc3nccc(N4C[C@H]5C[C@@H]4CN5c4cc(-c5ccccc5O)nnc4N)n3)c(=O)c2c1C` [Compound P-286, 5-[3-(4-{(1R,4R)-5-[3-amino-6-(0-hydroxyphenyl)-4-pyridazinyl]-2,5-diazabicyclo[2.2.1]hept-2-y1}-2-pyrimidinyl)-2-propynyl]-2,3-dimethyl-1,5,7a-triaza-4(5H)-indenone] as the molecule, how does the DC50 [1] read?
The DC50 was 50 to 500 nM.

What about the “SMARCA2 % Degradation @ 1 μM” value ([1]; @ 1 μM) of the same molecule?
The value was “++ (++=30-70%)”.

What about the DC50 [2] of the same molecule?
Its DC50 is 50 to 500 nM.

And the inhibition at 1 µM [2]?
The inhibition at 1 µM was 30 to 70%.

`CC1(F)CCN(CC#Cc2nccc(N3C4CCC3CN(c3cc(-c5ccccc5O)nnc3N)C4)n2)C1` (stereo not drawn) [Compound P-194, o-[6-amino-5-(8-{2-[3-(3-fluoro-3-methyl-1-pyrrolidinyl)-1-propynyl]-4-pyrimidinyl}-3,8-diazabicyclo[3.2.1]oct-3-yl)-3-pyridazinyl]phenol] was tested. Which DC50 [1] did it give?
Its DC50 is < 50 nM.

And the “SMARCA2 % Degradation @ 1 μM” value ([1]; @ 1 μM)?
Its value is “++ (++=30-70%)”.

And the DC50 [2]?
The DC50 was < 50 nM.

What about the inhibition at 1 µM [2] of the same molecule?
The inhibition at 1 µM was 30 to 70%.

`Nc1nnc(-c2ccccc2O)cc1N1CCCN(c2ccnc(C#CCN3CCn4c(nnc4C(F)(F)F)C3)n2)CC1` [Compound P-363, 0-{6-amino-5-[4-(2-{3-[3-(trifluoromethyl)-4,5,6,7-tetrahydro-1,2,3a,6-tetraaza-6-indenyl]-1-propynyl}-4-pyrimidinyl)-1,4-diazepan-1-yl]-3-pyridaziny1} phenol] was tested. Which DC50 [1] did it give?
The DC50 was 500 to 5000 nM.

And the “SMARCA2 % Degradation @ 1 μM” value ([1]; @ 1 μM)?
The value was “++ (++=30-70%)”.

And the DC50 [2]?
The DC50 was 500 to 5000 nM.

And the inhibition at 1 µM [2]?
Its inhibition at 1 µM is 30 to 70%.

Which results are given for `C[C@H]1CN(c2ccnc(C#CCn3cncn3)n2)CCN1c1cc(-c2ccccc2O)nnc1N` [Compound P-330, 0-{5-[(S)-2-methyl-4-{2-[3-(1H-1,2,4-triazol-1-yl)-1-propynyl]-4-pyrimidinyl}-1-piperazinyl]-6-amino-3-pyridazinyl} phenol]?
DC50 [1]: 50 to 500 nM; SMARCA2 % Degradation @ 1 μM ([1]; @ 1 μM): ++ (++=30-70%); DC50 [2]: 50 to 500 nM; inhibition at 1 µM [2]: < 30%

What does the source list for `Nc1nnc(-c2ccccc2O)cc1N1CCCN(c2ccnc(C#CC3CC3)n2)CC1` [Compound P-359, 0-(6-amino-5-{4-[2-(2-cyclopropylethynyl)-4-pyrimidinyl]-1,4-diazepan-1-yl}-3-pyridazinyl)phenol]?
DC50 [1]: 50 to 500 nM; SMARCA2 % Degradation @ 1 μM ([1]; @ 1 μM): ++ (++=30-70%); DC50 [2]: 50 to 500 nM; inhibition at 1 µM [2]: < 30%

With `C[C@@H]1CCCN1CC#Cc1nccc(N2CCN(c3cc(-c4ccccc4O)nnc3N)CC[C@H]2C)n1` [Compound P-232, o-{5-[(R)-4-(2-{3-[(R)-2-methyl-1-pyrrolidinyl]-1-propynyl}-4-pyrimidinyl)-5-methyl-1,4-diazepan-1-yl]-6-amino-3-pyridazinyl}phenol] as the molecule, how does the DC50 [1] read?
The DC50 was < 50 nM.

What about the “SMARCA2 % Degradation @ 1 μM” value ([1]; @ 1 μM) of the same molecule?
Its value is “+++ (+++=>70%)”.

What about the DC50 [2] of the same molecule?
Its DC50 is < 50 nM.

And the inhibition at 1 µM [2]?
Its inhibition at 1 µM is 30 to 70%.

Which results are given for `Cc1cnc(C#CCN(C)C)nc1N1CCN(c2cc(-c3ccccc3O)nnc2N)CC[C@H]1C` [Compound P-229, o-{5-[(R)-4-{2-[3-(dimethylamino)-1-propynyl]-5-methyl-4-pyrimidinyl}-5-methyl-1,4-diazepan-1-yl]-6-amino-3-pyridaziny1}phenol]?
DC50 [1]: < 50 nM; SMARCA2 % Degradation @ 1 μM ([1]; @ 1 μM): +++ (+++=>70%); DC50 [2]: 50 to 500 nM; inhibition at 1 µM [2]: 30 to 70%

Which DC50 [1] does the source give for `CN(C)CC#Cc1cc(OC2CN(c3cc(-c4ccccc4O)nnc3N)C2)ccn1` [Compound P-386, 0-[6-amino-5-(3-{2-[3-(dimethylamino)-1-propynyl]-4-pyridyloxy}-1-azetidinyl)-3-pyridazinyl]phenol] here?
Its DC50 is < 50 nM.

What about the “SMARCA2 % Degradation @ 1 μM” value ([1]; 1 μM) of the same molecule?
The value was “+ (+=<30%)”.

And the DC50 [2]?
The DC50 was < 50 nM.

How did the DC50 [1] turn out when `Nc1nnc(-c2ccccc2O)cc1N1CCCN(c2ccnc(C#CCN3CCN(C(=O)C4CC4)CC3)n2)CC1` [Compound P-365, {4-[3-(4-{4-[3-amino-6-(o-hydroxyphenyl)-4-pyridaziny1]-1,4-diazepan-1-yl}-2-pyrimidinyl)-2-propynyl]-1-piperazinyl}cyclopropylmethanone] was run?
Its DC50 is 500 to 5000 nM.

What about the “SMARCA2 % Degradation @ 1 μM” value ([1]; @ 1 μM) of the same molecule?
The value was “++ (++=30-70%)”.

What about the DC50 [2] of the same molecule?
Its DC50 is 500 to 5000 nM.

And the inhibition at 1 µM [2]?
The inhibition at 1 µM was 30 to 70%.

How did the DC50 [1] turn out when `Nc1nnc(-c2ccccc2O)cc1N1CC2CN(c3ccnc(C#CCNC(=O)c4cc5ncccn5n4)n3)CC21` (stereo not drawn) [Compound P-45, N-(3-(4-(6-(3-amino-6-(2-hydroxyphenyl)pyridazin-4-yl)-3,6-diazabicyclo[3.2.0]heptan-3-yl)pyrimidin-2-yl)prop-2-yn-1-yl)pyrazolo[1,5-a]pyrimidine-2-carboxamide] was run?
The DC50 was 500 to 5000 nM.

What about the “SMARCA2 % Degradation @ 1 μM” value ([1]; @ 1 μM) of the same molecule?
The value was “+ (+=<30%)”.

What about the DC50 [2] of the same molecule?
Its DC50 is 500 to 5000 nM.

And the inhibition at 1 µM [2]?
The inhibition at 1 µM was < 30%.

What does the source list for `Nc1nnc(-c2ccccc2O)cc1N1CCCN(c2ccnc(C#CCn3cnc4ccccc43)n2)CC1` [Compound P-150, 2-(5-(4-(2-(3-(1H-benzo[d]imidazol-1-yl)prop-1-yn-1-yl)pyrimidin-4-yl)-1,4-diazepan-1-yl)-6-aminopyridazin-3-yl)phenol]?
DC50 [1]: 50 to 500 nM; DC50 [2]: 50 to 500 nM; inhibition at 1 µM [2]: 30 to 70%

For `CC(C)(C)OC(=O)N1CCN(CC#Cc2nccc(N3CCCN(c4cc(-c5ccccc5O)nnc4N)CC3)n2)CC1` [Compound P-143, tert-butyl 4-(3-(4-(4-(3-amino-6-(2-hydroxyphenyl)pyridazin-4-yl)-1,4-diazepan-1-yl)pyrimidin-2-yl)prop-2-yn-1-yl)piperazine-1-carboxylate], which DC50 [1] is on record?
The DC50 was 50 to 500 nM.

What about the “SMARCA2 % Degradation @ 1 μM” value ([1]; @ 1 μM) of the same molecule?
The value was “+++ (+++=>70%)”.

What about the DC50 [2] of the same molecule?
Its DC50 is 50 to 500 nM.

And the inhibition at 1 µM [2]?
Its inhibition at 1 µM is 30 to 70%.

What does the source list for `C[C@@H]1CCN(c2cc(-c3ccccc3O)nnc2N)CCN1c1ccnc(C#CCN2C3CCCC2CC3)n1` [Compound P-228, o-{5-[(R)-4-(2-{3-(8-azabicyclo[3.2.1]oct-8-yl)-1-propynyl}-4-pyrimidinyl)-5-methyl-1,4-diazepan-1-y1]-6-amino-3-pyridazinyl}phenol]?
DC50 [1]: < 50 nM; SMARCA2 % Degradation @ 1 μM ([1]; @ 1 μM): ++ (++=30-70%); DC50 [2]: < 50 nM; inhibition at 1 µM [2]: 30 to 70%

Which DC50 [1] does the source give for `Nc1nnc(-c2ccccc2O)cc1N1CCCN(c2ccnc(C#CC34CCCN3CCC4)n2)CC1` [Compound P-355, 0-[6-amino-5-(4-{2-[2-(hexahydro-1H-pyrrolizin-7a-yl)ethynyl]-4-pyrimidinyl}-1,4-diazepan-1-yl)-3-pyridazinyl]phenol] here?
The DC50 was 50 to 500 nM.

And the “SMARCA2 % Degradation @ 1 μM” value ([1]; @ 1 μM)?
The value was “+++ (+++=>70%)”.

What about the DC50 [2] of the same molecule?
Its DC50 is 50 to 500 nM.

What about the inhibition at 1 µM [2] of the same molecule?
The inhibition at 1 µM was > 70%.

What does the source list for `C[C@@H]1CCN(c2cc(-c3ccccc3O)nnc2N)CCN1c1ccnc(C#CCN2CC3CC2C3)n1` [Compound P-234, o-{5-[(R)-4-(2-{3-(2-azabicyclo[2.1.1]hex-2-yl)-1-propynyl}-4-pyrimidinyl)-5-methyl-1,4-diazepan-1-yl]-6-amino-3-pyridazinyl}phenol]?
DC50 [1]: < 50 nM; SMARCA2 % Degradation @ 1 μM ([1]; @ 1 μM): +++ (+++=>70%); DC50 [2]: < 50 nM; inhibition at 1 µM [2]: 30 to 70%
